Here are results for 2 molecules from patent publication US20040014142A1, “Differential diagnosis of neurodegeneration” (INNOGENETICS N.V., priority 1998, published 2004).

Data set [1] has as its system tau. The following applies: in vivo. The method, then: Total tau was measured with the tau antigen test, using AT120 as capturing antibody and biotinylated HT7-BT2 as detector antibody (INNOTEST hTau antigen, Innogenetics, Gent, Belgium).
All patients underwent a thoroughly clinical evaluation at the time of diagnosis. Parental informed consent was available.
(§1) Lumbar punctures were performed for routine analysis either at baseline for diagnostic work-up or just prior to the IT administration of chemotherapy. Five ml of CSF was collected in different polypropylene tubes. One sample was centrifuged immediately at 1500 rpm for 2 minutes to eliminate cells and other insoluble material. The supernatant was stored at −70° C. for subsequent analysis. The number of freeze/thaw cycles was restricted to a minimum. Routine CSF measurement included cytology, protein concentration, glucose, etc.

Data set [2] relates to neuromodulin. Put plainly: CSF neuromodulin level after chemotherapy of children (sandwich ELISA NM2/NM4). In kind it is in vivo, human. The following applies: child with manifest neurotoxicity and diplegia after MTX; exceeded highest standard. The protocol: Neuromodulin was also measured with a sandwich-type ELISA, using two epitope-specific monoclonal antibodies (NM2, NM4; Oestreicher et al., 1994). NM2 was selected as capturing antibody, biotinylated NM4 as detector antibody. Recombinant neuromodulin was used as standard.
as §1

The subject of data set [3] is mice. The experiment in a line: Titer after immunization of mice with α-synuclein (coating ELISA). Type of data set: in vivo. The method, then: Alpha-synuclein was purified from 3 liters of induced E. coli cultures resulting in purification of more than 10 mg α-synuclein (more than 90% pure estimated from coumassie and silverstained gels). The protein was injected into mice following several immunization schemes (Table 3). After 4 injections the titer to α-synuclein was evaluated in a coating ELISA.
On the technique in general: An ELISA detects its analyte on a solid surface through an enzyme-linked reagent.

Where [4] appears, read: animal 309 (m2), 1°: 50 μg α-synuclein, 2°: 5 μg peptide (IGP1463).

Turning to `CN(Cc1cnc2nc(N)nc(N)c2n1)c1ccc(C(=O)N[C@@H](CCC(=O)O)C(=O)O)cc1` [MTX, methotrexate], in data set [1], the CSF tau level was over 1500 pg/mL. For the same molecule, the CSF neuromodulin level in data set [2] is over 8000 pg/mL.

Take α-synuclein: the “Estimated titer in direct coating” value is 250000 in data set [3] (animal 308 (m4), 50 μg protein); 512000 in data set [3] (setting [4]); 128000 in data set [3] (animal 309 (m4), 1°: 50 μg α-synuclein, 2°: 5 μg peptide (IGP1463)); 100000 in data set [3] (animal 312 (m2), 5 μg α-synuclein protein); over 512000 in data set [3] (animal 312 (m3), 5 μg α-synuclein protein); 2500000 in data set [3] (animal 313 (m2), 1°: 50 μg protein, 2°: 5 μg protein). In data set [3] (setting [4]), the titer on peptide entry was “(titer of 2000 on peptide)”. Besides, in data set [3] (six mice, after 4 injections), the “titer to α-synuclein (serum dilution resulting in OD value twice the background)” value is on record as “above 100000”.
